Assay results taken from patent publication US6497899B2, “Rapidly disintegrating and fast-dissolving solid dosage form” (Pfizer, Inc., priority 2000, dated 2002).

Assay: Dissolution testing of medicated tablets, USP/NF method 711, apparatus 2 at 50 RPM, UV absorption
Format: physicochemical
Conditions: medicated steam extruded starch solid dosage form, apparatus 2, 50 RPM
Experimental: Dosage form dissolution is measured by the United States Pharmacopeia/National Formulary (USP/NF) method 711 (United States Pharmacopeia, Rockville, Md., USA) and is summarized below:
The assembly from Apparatus 1 is used except that a paddle formed from a blade and a shaft is used as the stirring element. The shaft is positioned so that its axis is not more than 2 mm at any point from the vertical axis of the vessel and rotates smoothly without significant wobble. The vertical center line of the blade passes through the axis of the shaft so that the bottom of the blade is flush with the bottom of the shaft. The distance of 25±2 mm between the blade and the inside bottom of the vessel is maintained during the test. The metallic or suitably inert, rigid blade and shaft comprise a single entity that may be coated with a suitable inert coating. The dosage unit is allowed to sink to the bottom of the vessel before rotation of the blade is started. A small, loose piece of nonreactive material such as not more than a few turns of wire helix may be attached to dosage units that would otherwise float. Other validated sinker devices may be used. […]
The stated volume of the dissolution medium (±1%) is placed in the vessel of the apparatus. The dissolution medium is equilibrated to 37±0.5°C., and the thermometer removed. One solid dosage form is placed in the apparatus, taking care to exclude air bubbles from the surface of the dosage-form unit and either apparatus is immediately operated at a rate of 50 rpm. The concentration of dissolved drug in dissolution medium is measured over time by ultraviolet spectrophotometer to calculate the dissolution rate.
The medicated tablets were dissolved according to USP/NF method 711 using apparatus 2 at 50 RPM. Levels of medicament released were determined by UV absorption.

[1] = dissolution media Simulated Intestinal Fluid without enzyme
[2] = dissolution media deionized H2O, 37 C

| Structure (SMILES) | 1 minute release [1] [%] | 5 minute release [1] [%] | 10 minute release [1] [%] | 60 minute release [1] [%] | 1 minute release [2] [%] | 5 minute release [2] [%] | 60 minute release [2] [%] |
| --- | --- | --- | --- | --- | --- | --- | --- |
| CC(C(=O)O)c1ccc2c(c1)[nH]c1ccc(Cl)cc12 (stereo not shown) [Carprofen] | 33.4 | 69.6 | 82.8 | 101.4 | – | – | – |
| Cl.Cl.O=C(O)COCCN1CCN(C(c2ccccc2)c2ccc(Cl)cc2)CC1 (stereo not shown) [Cetirizine.HCl] | – | – | – | – | 65.5 | 82.7 | 100.1 |
| OC(Cn1cncn1)(Cn1cncn1)c1ccc(F)cc1F [Diflucan, Fluconazole] | – | – | – | – | 60.3 | 76.7 | 97.6 |
